# Laboratory results published in patent US12421279B2, “Cyclic peptide antiviral agents and methods using same” (priority 2016, dated 2025).
# Several values for one entry are separate records, joined by “and”; a condition that tells them apart may be missing. Equal entries are not always repeated. Where two headings read alike, the source gives them in different places. *1 amine or outer side, *2 acyl side, *3 side chain or, on linkers, in order; H or OH if unused. Where a SMILES comes first, the peptide text is derived from it. Bridges are numbered along the chain shown (N, C = ends). [ ]: non-standard residue; d: D form. X1 = O=C([C@@H]1C[C@H](n2cc(-c3ccc(-c4cccs4)cc3)nn2)CN1[*:1])[*:2]; X9 = CCc1ccc(-c2cn([C@H]3C[C@@H](C(=O)[*:2])N([*:1])C3)nn2)cc1; Bta = N[C@@H](Cc1csc2ccccc12)C(=O)O; Chg = N[C@H](C(=O)O)C1CCCCC1; Dab = NCC[C@H](N)C(=O)O
# Tests used:
# [1] = system: HIV-1Bal.01; details: for IC50: read-out: HIV-1Bal.01 infection inhibition IC50, HIV-1Bal.01 pseudovirus, HOS.T4.R5 cells
# [2] = biological target: T1, wild type gp120 YU-2 (Human immunodeficiency virus type 1 group M subtype B, UniProt P35961); test: Isothermal titration calorimetry binding to gp120; set-up: species or system HIV-1
# T1 construct: into 30 μM of YU2 full-length gp120 at 25° C; made in house; host or cells: HEK 293F
# Method: FIGS. 9A-9C illustrate cPT binding and thermodynamic profile of monomeric wild type gp120 YU-2 for cPTs 3 (FIGS. 9A and 9C) and 36 (FIGS. 9B and 9C). Compound solution, 390 μM (for 3) or 200 μM (for 36), was titrated in 8 μL steps into 30 μM of YU2 full-length gp120 at 25° C. in the reaction chamber of a VP-ITC instrument using 1×PBS buffer at pH 7.3. The resulting heat changes were integrated, and the values obtained were fitted to a quadratic binding equation (one site binding model).
# cPT dissociation constants were determined at 25° C. on a VP-Isothermal Titration calorimeter (VP-ITC) system (MicroCal™, GE Healthcare, Freiburg). 200 μM (for 36) or 390 μM (for 3) compound solutions were in 8 μL steps titrated into 30 μM of wild type gp120 YU-2 at 25° C. using 1×PBS buffer at pH 7.3. The resulting heat change upon injection was integrated over a time range of 300 sec, and the obtained values were fitted to a standard single-site binding model using ORIGIN®.
# [3] = biological target: T2, HIV-1YU-2 gp120 binding to mAb 17b (Human immunodeficiency virus type 1 group M subtype B, UniProt P35961); test: SPR competition assay: inhibition of gp120 binding to 17b (co-receptor surrogate); details: for inhibition of gp120 binding to 17b (in words): SPR competition
# T2 construct: The purified DNA encoding gp120 YU-2 was transfected into HEK 293F cells; made in house; host or cells: HEK 293F
# Method: (§1) SPR experiments are performed on a Biacore 3000 optical biosensor (GE Healthcare). All experiments are carried out at 25° C. using standard PBS buffer pH=7.4 with 0.005% surfactant Tween and 2% DMSO.
# (§2) Three flow cells in the CM5 chip were used for amine coupling of different ligands through standard 1-ethyl-3-(3-(dimethylamino) propyl) carbodiimide (EDC)/N-hydroxysuccinamide (NHS) chemistry. Flow cell 1 containing 2000 RUs of immobilized antibody 2B6R (α-human IL5R) served as a negative control for flow cells 2 and 3 each of which contained 2000 RUs of immobilized CD4 and 17b respectively.
# (§3) For kinetic analyses, typically 2000-3000 RUs of protein reagents are immobilized on SPR chips, and analytes are passed over the surface at 50-100 μL/min. Surface regeneration is achieved by a 5 μL injection of 10 mM HCl solution at 100 μL/min. […] Regeneration of the surface is achieved by a single 10 second pulse of 1.3 M NaCl/35 mM NaOH and single 5-second pulse of 10 mM glycine, pH 1.5, for sCD4 and mAb 17b, respectively.
# (§4) Data analysis of SPR competition data was performed using BIAevaluation v4.1.1 software (GE). To correct for nonspecific binding, response signals from buffer injection and from control flow cell were subtracted from all sensorgrams. Inhibition potencies were determined by calculating the inhibitor concentration required for 50% inhibition of maximal binding (IC50). The inhibition curve was plotted and then fitted using the four-parameter equation as shown below using OriginPro 8 graphing software.
# (§5) The cyclic peptides of the invention are tested against HIV-1 gp120 by SPR competition assays. A mixture of the cyclic peptide/gp120 solutions is passed over SPR chip immobilized with CD4 and 17b separately. The competition assay evaluates the ability of each peptide to inhibit the binding between gp120 and both soluble CD4 and 17b antibody, a surrogate for co-receptor.
# [4] = system: HOS.T4.R5 cells
# Method: cPTs 36 and 37 were tested for cytotoxicity in vitro with HOS.T4.R5 cells. The latter were seeded at […] per well and incubated with peptides as described elsewhere herein for the infection inhibition assays. Cell viability was determined using the tetrazolium salt premix reagent WST-1 from TaKaRa Bio, Inc., by following the manufacturer's protocol. The formazan product was measured 24 h post-exposure using a microplate reader (Molecular Devices) at an absorbance wavelength of 450 nm.
# [5] = biological target: T3, HIV-1YU-2 gp120 binding to sCD4 (Human immunodeficiency virus type 1 group M subtype B, UniProt P35961); test: SPR competition assay: inhibition of gp120 binding to CD4; details: for inhibition of gp120 binding to CD4 (in words): SPR competition
# T3 construct: The purified DNA encoding gp120 YU-2 was transfected into HEK 293F cells; made in house; host or cells: HEK 293F
# Method: as §1, §2, §3, §4, §5
# [6] = system: viruses pseudotyped with VSV-G; details: background; cited from earlier work
# [7] = system: tissue explants model; details: concentrations up to 100 μM; cited from earlier work
# [8] = biological target: monomeric gp120 (Human immunodeficiency virus type 1 group M subtype B, UniProt P35961); details: background; cited from earlier work
# [9] = system: subtype A, B and C isolates; details: read-out: IC50 range, neutralizes viral infection by subtype A; cited from earlier work
# [10] = PBS buffer or PBS buffer with 5% DMSO
# Source text: Each cPT was synthesized starting from the corresponding amino acids: Asn for 34 and Dab for 35. Designation of “poor” and “good” solubility was based on behavior of cPT in PBS buffer or PBS buffer with 5% DMSO.
molecule,measurement,setting,value
"CC[C@H](C)[C@@H]1NC(=O)[C@H](CC(N)=O)NC(=O)[C@@H](N)CC(=O)NCCCC[C@@H](C(N)=O)NC(=O)[C@H](Cc2c[nH]c3ccccc23)NC(=O)[C@@H]2C[C@H](n3cc(-c4ccc(-c5cccs5)cc4)nn3)CN2C1=O [cPT 36, (3S,6S,14S,17S,20S,24S,25aS)-3-((1H-indol-3-yl)methyl)-14-amino-17-(2-amino-2-oxoethyl)-20-((S)-sec-butyl)-1,4,12,15,18,21-hexaoxo-24-(4-(4-(thiophen-2-yl)phenyl)-1H-1,2,3-triazol-1-yl)tetracosahydro-1H-pyrrolo[2,1-f][1,4,7,10,13,18]hexaazacyclotricosine-6-carboxamide] (H-DNI[X1]WK-NH2; lactam 1-6)",fold improvement in potency compared to 23,[1]; infection inhibition,> 2 fold
same,IC50,[1],105 nM and ~100 nM
same,IC50,[1]; listed as 29N-2,~105 nM
same,Kd,[2],350 nM
same,ΔH,"[2]; ITC, 25° C.",-4.07 ± 0.06 kcal/mol
same,ΔS,"[2]; ITC, 25° C.",0.0159 kcal/mol
same,−TΔS,"[2]; ITC, 25° C.",-4.74 kcal/mol
same,IC50,[3],~56 nM
same,inhibition of gp120 binding to 17b (in words),[3],inhibited gp120 binding to both CD4 and 17b
same,inhibition of gp120 binding to 17b (in words),[3]; listed as 29N-2,dual inhibitors of both CD4 and 17b binding to gp120
same,selectivity index (SI),[4]; estimated from the IC50 and the CC50 values,> 1000
same,cytotoxicity (cell viability),"[4]; highest concentrations used 100 μM, 24 h post-exposure",no cytotoxicity was detected
same,IC50,[5],~66 nM
same,inhibition of gp120 binding to CD4 (in words),[5],inhibited gp120 binding to both CD4 and 17b
same,inhibition of gp120 binding to CD4 (in words),[5]; listed as 29N-2,dual inhibitors of both CD4 and 17b binding to gp120
"(S)-4-((S)-2-((S)-2-((2S,4S)-1-(L-arginyl-L-isoleucyl-L-asparaginyl-L-asparaginyl-L-alloisoleucyl)-4-(4-ferrocenyl-1H-1,2,3-triazol-1-yl)pyrrolidine-2-carboxamido)-3-(1H-indol-3-yl) propanamido)-3-hydroxypropanamido)-5-(((S)-1-(((S)-1-(((S)-1-amino-4-(methylthio)-1-oxobutan-2-yl)amino)-4-(methylthio)-1-oxobutan-2-yl)amino)-1-oxopropan-2-yl)amino)-5-oxopentanoic acid [HNG156]",neutralization of VSV-G pseudotyped viruses,[6],not viruses pseudotyped with VSV-G
same,toxicity,[7],no detectable toxicity
same,Kd,[8],7 nM
same,IC50,[9],80 to 62500 nM
CCc1ccc(-c2cn([C@H]3C[C@H]4C(=O)N[C@@H](Cc5csc6ccccc56)C(=O)N[C@H](C(N)=O)CCCCNC(=O)C[C@H](N)C(=O)N[C@@H](CC(N)=O)C(=O)N[C@@H](C5CCCCC5)C(=O)N4C3)nn2)cc1 [compound 34] (H-DN[Chg][X9][Bta]K-NH2; lactam 1-6),solubility,[10],poor solubility
CCc1ccc(-c2cn([C@H]3C[C@H]4C(=O)N[C@@H](Cc5csc6ccccc56)C(=O)N[C@H](C(N)=O)CCCCNC(=O)C[C@H](N)C(=O)N[C@@H](CCN)C(=O)N[C@@H](C5CCCCC5)C(=O)N4C3)nn2)cc1 [compound 35] (H-D[Dab][Chg][X9][Bta]K-NH2; lactam 1-6),solubility,[10],better solubility
